The values that follow are results of earlier work, collected in US9561272B2, “Compositions and methods for modulating immune responses” (The University of Queensland, priority 2006, dated 2017).

The subject of this series is NF-κB. Conditions: cited from earlier work.
The mark [1] stands for this setting: Table 3, miscellaneous inhibitors of NF-κB, step of NF-κB function inhibited, per the cited reference.

Read-outs that look alike come from different tables or passages of the source.

On to `COc1cc([C@@H]2c3cc4c(c(OC)c3[C@H](O)[C@H]3COC(=O)[C@H]23)OCO4)cc(OC)c1O`, for which, under setting [1], the “Effect or point of inhibition” value was “Transactivation”. Consider `CC(=O)OC(CC=C(C)C)C(C)=CC(O)CC(C)=CCOc1ccc2ccc(=O)oc2c1` (stereo not shown), for which the “Effect or point of inhibition” value under setting [1] is “Transactivation”. As for `S=C([S-])OC1CC2CC1C1CCCC21.[K+]` (stereo not shown), the “Effect or point of inhibition” value under setting [1] was “Transactivation”.

As to `CCOC(=O)c1cnc(NC2=C(C)C(=O)NC2=O)nc1C(F)(F)F`, the “Effect or point of inhibition” value under setting [1] is on record as “Transactivation”. On to `O=C(C=Cc1ccc(O)cc1)NCCc1c[nH]c2ccc(O)cc12`, for which the “Effect or point of inhibition” value under setting [1] was “DNA binding”. As for `CS(=O)(=O)Nc1cc2occ(NC=O)c(=O)c2cc1Oc1ccccc1`, the “Effect or point of inhibition” value under setting [1] is “DNA binding”. Regarding `COc1ccc(C=CC(=O)Nc2ccccc2C(=O)O)cc1OC`, under setting [1], the “Effect or point of inhibition” value is listed as “Transactivation”. Consider `CC(C)[C@]12O[C@H]1[C@@H]1O[C@]13[C@]1(O[C@H]1C[C@H]1C4=C(CC[C@@]13C)C(=O)OC4)[C@@H]2O`, for which the “Effect or point of inhibition” value under setting [1] was “DNA binding”. On to `CCCCCCCCCCCCCC(=O)OCC/C(SS/C(CCOC(=O)CCCCCCCCCCCCC)=C(\C)N(C=O)Cc1cnc(C)nc1N)=C(/C)N(C=O)Cc1cnc(C)nc1N`, for which the “Effect or point of inhibition” value is listed as “Nuclear translocation”. On to `COc1cc(/C=C/C(=O)c2ccc(F)cc2)cc(OC)c1OC` [3,4,5-trimethoxy-4′-fluorochalcone], for which the “Effect or point of inhibition” value under setting [1] is on record as “Transactivation”.

As to `C=CCNC1=C2C[C@@H](C)C[C@H](OC)[C@H](O)[C@@H](C)/C=C(\C)[C@H](OC(N)=O)[C@@H](OC)/C=C\C=C(/C)C(=O)NC(=CC1=O)C2=O` [17-allylamino-17-demethoxygeldanamycin], the “Effect or point of inhibition” value under setting [1] is “Transactivation”. As for `CC1(C)C[C@@H]1C(=O)Nc1ccc(Oc2ccc(NC(=O)[C@H]3CC3(C)C)cn2)cc1` [APC0576], the “Effect or point of inhibition” value under setting [1] is on record as “Transactivation”. With `C[C@H]1CCC[C@H](O)CCC/C=C/c2cc(O)cc(O)c2C(=O)O1` [Alpha-zearalenol], under setting [1], the “Effect or point of inhibition” value is “Transactivation”. As for `C=C(C)[C@@H]1CC[C@]2(C(=O)O[C@@H]3O[C@H](CO[C@@H]4O[C@H](CO)[C@@H](O[C@@H]5O[C@@H](C)[C@H](O)[C@@H](O)[C@H]5O)[C@H](O)[C@H]4O)[C@@H](O)[C@H](O)[C@H]3O)CC[C@]3(C)[C@H](C[C@H]4OC(=O)C[C@@H](O)[C@]5(C)[C@@H]4[C@@]3(C)CC[C@H]5C(=C)C)[C@@H]12` [Chiisanoside], the “Effect or point of inhibition” value is recorded as “RelA Nuclear translocation”.

For the molecule `C[n+]1c2n(c(=O)c3ccccc31)CCc1c-2[nH]c2ccccc12` [Dehydroevodiamine], the “Effect or point of inhibition” value under setting [1] was “Transactivation”. As for `N[C@@H](Cc1c[nH]cn1)C(=O)O` [Histidine], under setting [1], the “Effect or point of inhibition” value is on record as “Transactivation”. For `Oc1ccc(O)cc1` [Hydroquinone (HQ)], the “Effect or point of inhibition” value is reported as “DNA binding”. For `O=c1cc(N2CCOCC2)oc2c(-c3ccccc3)cccc12` [LY294,002], the “Effect or point of inhibition” value under setting [1] was “Transactivation”.

As for `O=c1cc(-c2ccc(O)c(O)c2)oc2cc(O)cc(O)c12` [Luteolin], the “Effect or point of inhibition” value under setting [1] is given as “p65 Transactivation”. On to `N[C@@H](CCC(=O)N[C@@H](CSN=O)C(=O)NCC(=O)O)C(=O)O` [Nitrosoglutathione], for which the “Effect or point of inhibition” value is reported as “DNA binding”.

With `COc1ccc(-c2cc(=O)c3c(OC)c(OC)c(OC)c(OC)c3o2)cc1OC` [Nobiletin], the “Effect or point of inhibition” value under setting [1] is “Transactivation”. In the case of `COc1ccc(C(C)=O)c(O)c1` [Paeonol (from Mountain Cortx)], under setting [1], the “Effect or point of inhibition” value is recorded as “Transactivation”. As for `S=C=NCCc1ccccc1` [Phenethylisothiocyanate], under setting [1], the “Effect or point of inhibition” value was “Transactivation”. For the molecule `CCCCCCCCCCCCC/C=C/[C@@H](O)[C@@H](N)CO[C@@H]1O[C@H](CO)[C@H](O)[C@H](O)[C@H]1O` [Psychosine], the “Effect or point of inhibition” value under setting [1] is listed as “Transactivation”. Regarding `Cn1cc(C2=C(c3cn(CCCSC(=N)N)c4ccccc34)C(=O)NC2=O)c2ccccc21` [RO31-8220 (PKC inhibitor)], the “Effect or point of inhibition” value under setting [1] is reported as “Transactivation”. In the case of `C[S+]([O-])c1ccc(-c2nc(-c3ccc(F)cc3)c(-c3ccncc3)[nH]2)cc1` (stereo not shown) [SB203580 (p38 MAPK inhibitor)], the “Effect or point of inhibition” value is “Transactivation”. For `O=C(Nc1ncc([N+](=O)[O-])s1)c1ccc([N+](=O)[O-])c(Cl)c1` [SM-7368 (small molecule)], under setting [1], the “Effect or point of inhibition” value is “DNA binding”.

Consider `c1cc2c(cc1[C@H]1OC[C@H]3[C@@H]1CO[C@@H]3c1ccc3c(c1)OCO3)OCO2` [Sesamin (from sesame oil)], for which, under setting [1], the “Effect or point of inhibition” value is given as “DNA binding”.

As to `COC1=C[C@@H]2[C@@H]3Cc4ccc(OC)c(O)c4[C@]2(CCN3C)CC1=O` [Sinomenine], the “Effect or point of inhibition” value under setting [1] is recorded as “DNA binding”. `O=C(O)c1cc(/N=N/c2ccc(S(=O)(=O)Nc3ccccn3)cc2)ccc1O` [Sulfasalazine]: under setting [1], the “Effect or point of inhibition” value is given as “DNA binding”.

On to `Cc1nc(C)c(C)nc1C` [Tetramethylpyrazine], for which the “Effect or point of inhibition” value under setting [1] is “DNA binding”. With `[SH-].[SH-].[S]=[Mo]=[S]` [Tetrathiomolybdate], under setting [1], the “Effect or point of inhibition” value is listed as “Transactivation”.

On to `O=C1NC(=O)C(Cc2ccc3cc(OCc4ccccc4F)ccc3c2)S1` (stereo not shown) [Thiazolidinedione MCC-555], for which the “Effect or point of inhibition” value under setting [1] was “DNA binding”. As for `CC(/C=C/C(=O)NO)=C\[C@@H](C)C(=O)c1ccc(N(C)C)cc1` [Trichostatin A], under setting [1], the “Effect or point of inhibition” value is recorded as “RelA DNA binding”. In the case of `CCCCC/C=C\C/C=C\CCCCCCCC(=O)OCC(COC(=O)CCCCCCC/C=C\C/C=C\CCCCC)OC(=O)CCCCCCC/C=C\C/C=C\CCCCC` [Trilinolein], under setting [1], the “Effect or point of inhibition” value is reported as “Transactivation”. Turning to `N#CC(C#N)=Cc1ccc([N+](=O)[O-])c(O)c1` [Tyrphostin AG-126], under setting [1], the “Effect or point of inhibition” value is reported as “DNA binding”. On to `C[C@H]1[C@H](C)CC[C@]2(C(=O)O)CC[C@]3(C)C(=CC[C@@H]4[C@@]5(C)CC[C@H](O)C(C)(C)[C@@H]5CC[C@]43C)[C@H]12` [Ursolic acid], for which, under setting [1], the “Effect or point of inhibition” value is “DNA binding”. Turning to `CC1=C(CO)C(=O)O[C@@H]([C@@H](C)[C@H]2CC[C@H]3[C@@H]4C[C@H]5O[C@]56[C@@H](O)C=CC(=O)[C@]6(C)[C@H]4CC[C@]23C)C1` [Withaferin A], the “Effect or point of inhibition” value under setting [1] was “DNA binding”.

In the case of `COc1c(O)cc(O)c2c(=O)cc(-c3ccccc3)oc12` [Wogonin (5,7-dihydroxy-8-methoxyflavone)], the “Effect or point of inhibition” value under setting [1] is “DNA binding”. Regarding `COC[C@H]1OC(=O)c2coc3c2[C@@]1(C)C1=C(C3=O)[C@@H]2CCC(=O)[C@@]2(C)C[C@H]1OC(C)=O` [Wortmannin (fungal metabolite)], under setting [1], the “Effect or point of inhibition” value is on record as “Transactivation”.

`COc1cc(O)c(CC=C(C)C)c(O)c1C(=O)/C=C/c1ccc(O)cc1` [Xanthohumol (a hops prenylflavonoid)]: under setting [1], the “Effect or point of inhibition” value is listed as “DNA binding”. For `OC[C@@H](O)[C@H](O)[C@@H](O)CO` [Xylitol], the “Effect or point of inhibition” value under setting [1] is listed as “DNA binding”.

Turning to Artemisolide, the “Effect or point of inhibition” value under setting [1] is listed as “Transactivation”.

For the molecule Siva-1, the “Effect or point of inhibition” value under setting [1] is “DNA binding”. As to Tom1 (target of Myb-1) overexpression, the “Effect or point of inhibition” value under setting [1] is given as “DNA binding”. mercury: the “Effect or point of inhibition” value was “DNA binding”.

B1: PIAS3 (protein, UniProt Q9Y6X2 1-628, looked up)
E3 SUMO-protein ligase PIAS3: MAELGELKHMVMSFRVSELQVLLGFAGRNKSGRKHELLAKALHLLKSSCAPSVQMKIKELYRRRFPRKTLGPSDLSLLSLPPGTSPVGSPGPLAPIPPTLLAPGTLLGPKREVDMHPPLPQPVHPDVTMKPLPFYEVYGELIRPTTLASTSSQRFEEAHFTFALTPQQVQQILTSREVLPGAKCDYTIQVQLRFCLCETSCPQEDYFPPNLFVKVNGKLCPLPGYLPPTKNGAEPKRPSRPINITPLARLSATVPNTIVVNWSSEFGRNYSLSVYLVRQLTAGTLLQKLRAKGIRNPDHSRALIKEKLTADPDSEVATTSLRVSLMCPLGKMRLTVPCRALTCAHLQSFDAALYLQMNEKKPTWTCPVCDKKAPYESLIIDGLFMEILSSCSDCDEIQFMEDGSWCPMKPKKEASEVCPPPGYGLDGLQYSPVQGGDPSENKKKVEVIDLTIESSSDEEDLPPTKKHCSVTSAAIPALPGSKGVLTSGHQPSSVLRSPAMGTLGGDFLSSLPLHEYPPAFPLGADIQGLDLFSFLQTESQHYGPSVITSLDEQDALGHFFQYRGTPSHFLGPLAPTLGSSHCSATPAPPPGRVSSIVAPGGALREGHGGPLPSGPSLTGCRSDIISLD
Turning to B1, under setting [1], the “Effect or point of inhibition” value is given as “Transactivation”.

B2: Secretory leukoprotease inhibitor (SLPI) (protein, UniProt P03973 26-132, looked up)
Antileukoproteinase: SGKSFKAGVCPPKKSAQCLRYKKPECQSDWQCPGKKRCCPDTCGIKCLDPVDTPNPTRRKPGKCPVTYGQCLMLNPPNFCEMDGQCKRDLKCCMGMCGKSCVSPVKA
B2: the “Effect or point of inhibition” value under setting [1] is given as “DNA binding”.

B3: Siah2 (protein, UniProt O43255 1-324, looked up)
E3 ubiquitin-protein ligase …: MSRPSSTGPSANKPCSKQPPPQPQHTPSPAAPPAAATISAAGPGSSAVPAAAAVISGPGGGGGAGPVSPQHHELTSLFECPVCFDYVLPPILQCQAGHLVCNQCRQKLSCCPTCRGALTPSIRNLAMEKVASAVLFPCKYATTGCSLTLHHTEKPEHEDICEYRPYSCPCPGASCKWQGSLEAVMSHLMHAHKSITTLQGEDIVFLATDINLPGAVDWVMMQSCFGHHFMLVLEKQEKYEGHQQFFAIVLLIGTRKQAENFAYRLELNGNRRRLTWEATPRSIHDGVAAAIMNSDCLVFDTAIAHLFADNGNLGINVTISTCCP
For the molecule B3, under setting [1], the “Effect or point of inhibition” value is listed as “DNA binding”.
